Experimental data from US11124509B2, “Tri-substituted imidazoles for the inhibition of TGF beta and methods of treatment” (CLAVIUS PHARMACEUTICALS, LLC, priority 2017, dated 2021).
Where a name gives a salt, the structure may show the parent alone. Read-outs that look alike come from different tables or passages of the source.

Tests used:
TGFBR1 (ALK5) = TGFBR1 (ALK5) (Homo sapiens (Human), UniProt P36897); experiment: LanthaScreen Eu Kinase Binding Assay TGFBR1 (ALK5) (ThermoFisher SelectScreen); conditions: read-out: TβRI (ALK5) Binding IC50
Sequence of TGFBR1 (ALK5) (P36897 34-503): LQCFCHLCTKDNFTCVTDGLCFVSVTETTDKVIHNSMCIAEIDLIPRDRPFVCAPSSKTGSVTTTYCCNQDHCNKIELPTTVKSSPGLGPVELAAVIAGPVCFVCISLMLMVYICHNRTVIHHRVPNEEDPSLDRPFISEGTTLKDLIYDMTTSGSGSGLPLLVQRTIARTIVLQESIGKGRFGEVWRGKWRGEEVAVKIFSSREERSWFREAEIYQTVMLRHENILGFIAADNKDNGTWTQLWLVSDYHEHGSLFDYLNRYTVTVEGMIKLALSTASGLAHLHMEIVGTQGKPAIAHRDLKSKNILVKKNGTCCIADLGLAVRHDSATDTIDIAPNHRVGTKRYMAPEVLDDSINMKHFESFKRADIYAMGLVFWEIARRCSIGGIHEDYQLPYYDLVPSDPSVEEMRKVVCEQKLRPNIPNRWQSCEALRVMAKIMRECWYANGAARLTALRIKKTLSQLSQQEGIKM
Experimental: (§1) Exemplified compounds were confirmed to inhibit ALK5 activity in enzyme and cellular assays in the following assay systems conducted by ThermoFisher in Madison, Wis. according to their commercially available protocols.
ThermoFisher SelectScreen™ Biochemical Kinase Profiling Service, LanthaScreen™Eu Kinase Binding Assay TGFBR1 (ALK5)
Exemplified compounds were screened in 1% DMSO (final concentration) by 3-fold serial dilutions from 10,000 nM to 0.316 nM to produce an IC50 or at single concentrations of 10,000, 1000 and 100 nM according to the following protocol. To low volume, white 384-well plates (Greiner Cat #784207) add 160 nL 100× compound in 100% DMSO, 3.84 uL kinase buffer (50 mM HEPES, pH 7.5, 0.01% BRIJ-35, 10 mM MgCl2, 1 mM EGTA), 8 uL 2× kinase/antibody mixture in kinase buffer (final ALK5 concentration of 5 nM; final Eu-anti-GST antibody concentration of 2 nM), 4 uL 4× Tracer #178 in kinase buffer (final concentration of 5 nM). Gently shake the plates for 30 seconds and incubate at room temperature for 1 hour before reading fluorescence on a plate reader. Percent inhibition was determined compared to DMSO only control (maximal ALK5 tracer binding) and sigmoidal dose response curve fit yielded IC50 values as indicated in Table 2.

[1] = test system: TGF-beta 1 stimulated SBE-b1a HEK 293T cells; experiment: GeneBLAzer beta-lactamase reporter, TGF-beta 1 stimulated SBE-b1a HEK 293T cell-based assay (ThermoFisher SelectScreen); conditions: Homo sapiens, HEK-293T; TGF-beta 1 0.03 nM, 5 hours; inhibitor 10,000 nM to 0.316 nM; sigmoidal dose response curve fit; read-out: Cells (SBE_HEK293T) IC50
Experimental: as §1
ThermoFisher SelectScreen™ Cell-Based Pathway Profiling Service GeneBLAzer Beta-Lactamase (b1a) Reporter Technology—TGF-Beta 1 Stimulated SBE-b1a HEK 293T Cell-Based Assay
SBE-b1a HEK 293T cells were thawed and re-suspended in Assay Media (OPTI-MEM, 0.5% dialyzed FBS, 0.1 mM NEAA, 1 mM Sodium Pyruvate, 100 U/mL/100 μg/mL Pen/Strep) to a concentration of 625,000 cells/mL. 32 μL of cell suspension (20,000 cells) was added to each well of a 384-well Poly-D-Lysine assay plate. Cells in Assay Media were incubated for 16-24 hours in the plate at 37° C./5% CO2 in a humidified incubator. 4 μL of a 10× serial dilution of ALK5 inhibitors (10x=100,000-3.16 nM) was added to appropriate wells of the plate and pre-incubated at 37° C./5% CO2 in a humidified incubator with cells for 30 minutes. Final concentration of inhibitor ranged from 10,000 nM to 0.316 nM. 4 μL of 10× TGF-beta 1 (final concentration of 0.03 nM) was added to wells containing the inhibitors. The plate was incubated for 5 hours at 37° C./5% CO2 in a humidified incubator. 8 μL of 1 μM Substrate Loading Solution was added to each well and the plate was incubated for 2 hours at room temperature before being read on a fluorescence plate reader. Percent inhibition was determined compared to DMSO only control (maximal TGF-beta 1 stimulation) and sigmoidal dose response curve fit yielded IC50 values as indicated in Table 2.

[2] = 3-fold serial dilutions 10,000 nM to 0.316 nM, ALK5 5 nM, Tracer #178 5 nM, sigmoidal dose response curve fit
[3] = compounds marked with an asterisk: evaluated at three concentrations, IC50 depicted as less than the lowest concentration producing >50% inhibition

| IC50 (TGFBR1 (ALK5); [2]) [nM] | IC50 (TGFBR1 (ALK5); [3]) [nM] | SMILES | IC50 [1] [nM] |
| --- | --- | --- | --- |
| 354 | – | Cn1ccc(-c2nc(CNc3cccc(F)c3)[nH]c2-c2ccc3ncnn3c2)n1 [Compound 6, N-((5-([1,2,4]triazolo[1,5-a]pyridin-6-yl)-4-(1-methyl-1H-pyrazol-3-yl)-1H-imidazol-2-yl)methyl)-3-fluoroaniline hydrochloride] | 3870 |
| – | < 1000 | Cn1ccc(-c2nc(CNc3cccc(C#N)c3)[nH]c2-c2ccc3ncnn3c2)n1 [Compound 16, 3-(((5-([1,2,4]triazolo[1,5-a]pyridin-6-yl)-4-(1-methyl-1H-pyrazol-3-yl)-1H-imidazol-2-yl)methyl)amino)benzonitrile hydrochloride] | 3570 |
| 46.2 | – | CCNC(=O)c1ccc(-c2nc(-c3ccn(C)n3)c(-c3ccc4ncsc4c3)[nH]2)cc1 [Compound 65] | 654 |
| – | < 100 | CC(C)n1ccc(-c2nc(CNc3cccc(C(N)=O)c3)[nH]c2-c2ccc3ncnn3c2)n1 [Compound 29, 3-(((5-([1,2,4]triazolo[1,5-a]pyridin-6-yl)-4-(1-isopropyl-1H-pyrazol-3-yl)-1H-imidazol-2-yl)methyl)amino)benzamide] | 4620 |
| 264 | – | CC(C)n1ccc(-c2nc(CNc3ccccc3)[nH]c2-c2ccc3ncnn3c2)n1 [Compound 10, N-((5-([1,2,4]triazolo[1,5-a]pyridin-6-yl)-4-(1-isopropyl-1H-pyrazol-3-yl)-1H-imidazol-2-yl)methyl)aniline hydrochloride] | 2660 |
| 5.6 | – | Fc1cccc(NCc2nc(-c3ccn(C(F)F)n3)c(-c3ccc4nccnc4c3)[nH]2)c1 [Compound 46] | 11.6 |

Continued, compound first:

| SMILES | IC50 (TGFBR1 (ALK5); [2]) [nM] | IC50 (TGFBR1 (ALK5); [3]) [nM] | IC50 [1] [nM] |
| --- | --- | --- | --- |
| Fc1cc(F)cc(NCc2nc(-c3ccn(C4CC4)n3)c(-c3ccc4nccnc4c3)[nH]2)c1 [Compound 68] | 1.2 | – | 10.9 |
| Cc1cc(C(N)=O)cc(C)c1-c1nc(-c2ccn(C)n2)c(-c2ccc3ncsc3c2)[nH]1 [Compound 63] | 399 | – | 3030 |
| Cn1ccc(-c2nc(CNc3ccccc3)[nH]c2-c2ccc3ncnn3c2)n1 [Compound 4, N-((5-([1,2,4]triazolo[1,5-a]pyridin-6-yl)-4-(1-methyl-1H-pyrazol-3-yl)-1H-imidazol-2-yl)methyl)aniline hydrochloride] | 1370 | – | > 10000 |
| CC(C)n1ccc(-c2nc(CNc3ccccc3F)[nH]c2-c2ccc3nccnc3c2)n1 [Compound 57] | 128 | – | 2190 |
| CC(C)n1ccc(-c2nc(CNc3cccc(C#N)c3)[nH]c2-c2ccc3nccnc3c2)n1 [Compound 41] | 33 | – | 77.5 |
| Cn1ccc(-c2nc(-c3ccc(C(N)=O)cc3)[nH]c2-c2ccc3nccnc3c2)n1 [Compound 43] | – | < 100 | 485 |
| CC(C)n1ccc(-c2nc(CNc3cccc(F)c3)[nH]c2-c2ccc3ncnn3c2)n1 [Compound 20, N-((5-([1,2,4]triazolo[1,5-a]pyridin-6-yl)-4-(1-isopropyl-1H-pyrazol-3-yl)-1H-imidazol-2-yl)methyl)-3-fluoroaniline hydrochloride] | – | < 100 | 1270 |
